# Experimental data from ChEMBL document CHEMBL3638496, “Pyrazolopyrrolidine derivatives and their use in the treatment of disease” (2015).
# Assays:
# [1] = molecular target: CREB-binding protein (Homo sapiens, UniProt Q92793); assay: AlphaScreen In-Vitro Binding Assay: In order to assess bromodomain selectivity, we set up a binding assay using the bromodomain encoded by the CREBBP gene. Compounds were tested in the CREBBP assay with a similar protocol, however using AlphaScreen (Amplified Luminescent Proximity Homogeneous Assay, Perkin Elmer) as detection readout instead of TR-FRET. The assay was started by stepwise addition of 4.5 uL per well of bromo domain protein (50 mM HEPES, pH 7.5, 0.005% Tween20, 0.02% BSA, 150 mM NaCl, 324 nM His-CREBBP (1081-1197) (custom production at Viva Biotech Ltd.)) and 4.5 uL per well of peptide solution (50 mM HEPES, pH 7.5, 0.005% Tween20, 0.02% BSA, 150 mM NaCl, 120 nM acetyl-histone H4 (AcK 5, 8, 12) (Biosyntan GmbH)). Reactions were incubated at 30 C. for 35 minutes. Subsequently 4.5 uL per well detection mix (50 mM HEPES, pH 7.5, 0.005% Tween20, 0.02% BSA, 150 mM NaCl, 45 ug/ml Ni-chelate acceptor beads, 45 ug/mL streptavidin-donor beads) (Perkin Elmer)) were added.
# Sequence of CREB-binding protein (Q92793 whole entry, the tested form may be a part): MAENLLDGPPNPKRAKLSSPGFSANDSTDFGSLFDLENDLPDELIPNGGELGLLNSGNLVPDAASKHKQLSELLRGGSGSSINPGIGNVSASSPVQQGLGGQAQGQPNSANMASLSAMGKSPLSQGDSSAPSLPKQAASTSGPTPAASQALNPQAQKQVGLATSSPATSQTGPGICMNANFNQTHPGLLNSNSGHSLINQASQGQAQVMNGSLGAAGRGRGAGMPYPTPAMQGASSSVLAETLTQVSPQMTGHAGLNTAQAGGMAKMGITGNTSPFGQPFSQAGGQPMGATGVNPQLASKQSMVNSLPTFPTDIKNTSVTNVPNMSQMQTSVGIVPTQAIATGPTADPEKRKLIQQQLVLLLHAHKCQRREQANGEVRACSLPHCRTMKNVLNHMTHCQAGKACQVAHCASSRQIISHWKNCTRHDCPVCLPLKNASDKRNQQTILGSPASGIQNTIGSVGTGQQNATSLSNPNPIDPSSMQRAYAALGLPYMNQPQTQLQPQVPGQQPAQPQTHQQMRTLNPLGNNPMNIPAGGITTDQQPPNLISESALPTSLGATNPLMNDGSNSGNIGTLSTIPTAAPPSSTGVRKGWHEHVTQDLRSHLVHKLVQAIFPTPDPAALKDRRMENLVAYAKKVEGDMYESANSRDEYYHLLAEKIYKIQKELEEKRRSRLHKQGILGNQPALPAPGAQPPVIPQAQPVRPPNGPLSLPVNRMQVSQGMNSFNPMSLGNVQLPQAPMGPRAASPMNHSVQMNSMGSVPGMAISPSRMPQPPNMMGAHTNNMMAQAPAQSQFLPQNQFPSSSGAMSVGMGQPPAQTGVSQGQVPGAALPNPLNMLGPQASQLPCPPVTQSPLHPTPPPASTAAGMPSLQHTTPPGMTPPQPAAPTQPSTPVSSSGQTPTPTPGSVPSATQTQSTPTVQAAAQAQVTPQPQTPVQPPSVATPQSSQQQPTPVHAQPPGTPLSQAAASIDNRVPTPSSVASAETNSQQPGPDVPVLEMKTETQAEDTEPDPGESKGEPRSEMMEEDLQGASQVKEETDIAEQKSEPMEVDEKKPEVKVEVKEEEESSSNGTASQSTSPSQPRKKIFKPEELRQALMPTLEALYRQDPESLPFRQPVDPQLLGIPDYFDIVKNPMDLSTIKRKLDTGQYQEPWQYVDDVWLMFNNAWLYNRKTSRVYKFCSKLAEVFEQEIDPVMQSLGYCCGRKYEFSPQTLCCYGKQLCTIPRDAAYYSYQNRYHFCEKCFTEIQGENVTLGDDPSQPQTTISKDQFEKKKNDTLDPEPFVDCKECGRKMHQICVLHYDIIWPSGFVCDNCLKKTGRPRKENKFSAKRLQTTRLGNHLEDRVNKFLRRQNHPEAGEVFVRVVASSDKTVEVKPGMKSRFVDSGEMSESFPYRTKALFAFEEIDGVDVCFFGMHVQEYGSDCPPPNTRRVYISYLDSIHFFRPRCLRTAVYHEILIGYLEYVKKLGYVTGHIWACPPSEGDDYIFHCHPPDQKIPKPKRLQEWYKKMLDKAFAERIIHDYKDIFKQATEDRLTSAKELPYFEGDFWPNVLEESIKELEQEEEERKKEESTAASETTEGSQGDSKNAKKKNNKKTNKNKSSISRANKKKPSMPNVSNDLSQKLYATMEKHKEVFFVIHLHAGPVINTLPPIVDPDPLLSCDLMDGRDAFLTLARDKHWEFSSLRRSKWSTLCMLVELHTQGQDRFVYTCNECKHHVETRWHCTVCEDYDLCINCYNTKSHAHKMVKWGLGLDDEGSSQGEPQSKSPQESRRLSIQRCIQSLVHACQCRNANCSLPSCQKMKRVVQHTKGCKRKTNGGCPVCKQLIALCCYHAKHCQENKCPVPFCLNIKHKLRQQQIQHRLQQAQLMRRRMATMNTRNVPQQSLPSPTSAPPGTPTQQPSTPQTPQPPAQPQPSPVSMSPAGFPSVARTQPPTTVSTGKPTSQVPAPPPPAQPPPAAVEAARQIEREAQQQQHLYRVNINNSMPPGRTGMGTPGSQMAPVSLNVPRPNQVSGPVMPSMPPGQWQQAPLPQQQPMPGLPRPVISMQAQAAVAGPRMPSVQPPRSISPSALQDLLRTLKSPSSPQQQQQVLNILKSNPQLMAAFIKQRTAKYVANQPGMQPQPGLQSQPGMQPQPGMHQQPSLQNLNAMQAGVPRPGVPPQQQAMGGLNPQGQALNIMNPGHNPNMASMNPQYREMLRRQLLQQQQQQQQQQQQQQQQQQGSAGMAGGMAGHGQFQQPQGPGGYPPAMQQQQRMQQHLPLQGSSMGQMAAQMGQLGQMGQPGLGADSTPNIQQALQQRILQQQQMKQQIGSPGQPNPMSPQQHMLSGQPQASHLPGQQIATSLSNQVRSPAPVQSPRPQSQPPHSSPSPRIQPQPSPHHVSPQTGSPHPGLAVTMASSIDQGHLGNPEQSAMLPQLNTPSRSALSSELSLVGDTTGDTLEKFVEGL
# [2] = molecular target: Bromodomain-containing protein 2 (Homo sapiens, UniProt P25440); assay: (§1) TR-FRET In-Vitro Binding Assay: All assays were performed in 384-well microtiter plates. Each assay plate contained 8-point serial dilutions for 40 test compounds, plus 16 high- and 16 low controls. Liquid handling and incubation steps were done on an Innovadyne Nanodrop Express equipped with a robotic arm (Thermo CatX, Perkin Elmer/Caliper Twister II) and an incubator (Liconic STX40, Thermo Cytomat 2C450). The assay plates were prepared by addition of 50 nl per well of compound solution in 90% DMSO HummingBird nanodispenser (Zinsser Analytic). The assay was started by stepwise addition of 4.5 uL per well of bromo domain protein (50 mM HEPES, pH 7.5, 0.005% Tween20, 0.1% BSA, 50 mM NaCl, 45 nM His-Brd2(60-472) or 45 nM His-Brd3(20-477) or 45 nM His-Brd4(44-477) all proteins produced in-house) and 4.5 uL per well of peptide solution (50 mM HEPES, pH 7.5, 0.005% Tween20, 0.1% BSA, 50 mM NaCl, 60 nM acetyl-histone H4 (AcK 5, 8, 12, 16) (Biosyntan GmbH)). Reactions were incubated at 30 C. for 35 minutes.
# Sequence of Bromodomain-containing protein 2 (P25440 whole entry, the tested form may be a part): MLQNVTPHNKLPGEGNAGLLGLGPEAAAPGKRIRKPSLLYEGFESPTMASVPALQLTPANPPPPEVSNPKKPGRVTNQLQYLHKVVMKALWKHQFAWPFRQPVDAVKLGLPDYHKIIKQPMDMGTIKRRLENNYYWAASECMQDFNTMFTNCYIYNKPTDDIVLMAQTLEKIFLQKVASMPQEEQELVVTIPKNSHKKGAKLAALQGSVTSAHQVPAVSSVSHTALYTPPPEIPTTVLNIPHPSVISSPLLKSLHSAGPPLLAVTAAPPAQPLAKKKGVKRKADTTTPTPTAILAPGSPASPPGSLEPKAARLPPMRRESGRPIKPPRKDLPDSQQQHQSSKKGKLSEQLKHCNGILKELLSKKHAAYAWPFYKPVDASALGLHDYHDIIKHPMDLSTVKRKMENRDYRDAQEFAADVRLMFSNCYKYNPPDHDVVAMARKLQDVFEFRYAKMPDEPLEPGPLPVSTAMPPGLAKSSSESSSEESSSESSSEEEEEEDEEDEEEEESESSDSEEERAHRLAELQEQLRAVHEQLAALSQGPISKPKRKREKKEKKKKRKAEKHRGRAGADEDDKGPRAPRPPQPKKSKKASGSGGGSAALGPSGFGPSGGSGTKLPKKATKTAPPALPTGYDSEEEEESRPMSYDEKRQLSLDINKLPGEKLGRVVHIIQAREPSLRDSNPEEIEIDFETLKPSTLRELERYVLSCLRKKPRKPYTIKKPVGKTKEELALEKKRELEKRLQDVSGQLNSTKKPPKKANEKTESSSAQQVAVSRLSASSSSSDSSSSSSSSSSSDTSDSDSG
# [3] = molecular target: Bromodomain-containing protein 3 (Homo sapiens, UniProt Q15059); assay: as §1
# Sequence of Bromodomain-containing protein 3 (Q15059 whole entry): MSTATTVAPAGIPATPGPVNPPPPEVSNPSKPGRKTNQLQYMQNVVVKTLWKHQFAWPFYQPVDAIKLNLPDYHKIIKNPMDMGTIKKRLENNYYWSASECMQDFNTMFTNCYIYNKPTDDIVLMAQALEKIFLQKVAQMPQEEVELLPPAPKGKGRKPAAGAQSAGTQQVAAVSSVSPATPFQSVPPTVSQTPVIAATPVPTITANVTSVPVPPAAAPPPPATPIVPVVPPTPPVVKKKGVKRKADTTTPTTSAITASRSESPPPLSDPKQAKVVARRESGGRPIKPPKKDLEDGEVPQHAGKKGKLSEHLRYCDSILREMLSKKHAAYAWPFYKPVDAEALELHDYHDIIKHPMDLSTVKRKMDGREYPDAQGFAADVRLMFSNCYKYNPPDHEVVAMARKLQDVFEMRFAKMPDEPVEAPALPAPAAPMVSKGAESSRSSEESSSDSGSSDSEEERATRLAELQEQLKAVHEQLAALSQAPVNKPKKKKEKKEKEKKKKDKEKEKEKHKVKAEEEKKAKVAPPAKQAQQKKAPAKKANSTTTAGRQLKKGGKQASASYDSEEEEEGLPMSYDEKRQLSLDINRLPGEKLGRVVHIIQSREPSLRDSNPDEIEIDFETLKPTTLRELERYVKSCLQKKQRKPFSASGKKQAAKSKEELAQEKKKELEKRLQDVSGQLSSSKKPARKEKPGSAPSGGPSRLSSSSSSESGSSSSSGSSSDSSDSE
# [4] = molecular target: Bromodomain-containing protein 4 (Homo sapiens, UniProt O60885); assay: as §1
IC50 [1] [µM],IC50 [2] [µM],IC50 [3] [µM],IC50 [4] [µM],Structure (SMILES)
4.8,0.052,0.044,–,CCc1nn(CCOC)c2c1C(c1ccc(Cl)cc1)N(c1cc(C)c(=O)n(C)c1)C2=O (stereo not given)
2.6,0.12,0.06,0.071,Cc1cc(N2C(=O)c3nn(C(C)C)c(C)c3C2c2ccc(Cl)cc2F)cn2c(C)nnc12 (stereo not given)
16,0.13,0.08,0.055,COc1ncccc1-n1nc2c(c1C)C(c1ccc(F)cc1F)N(c1cc(C)c3nnc(C)n3c1)C2=O (stereo not given)
2.8,0.27,0.17,0.19,Cc1[nH]nc2c1C(c1ccc(Cl)cc1F)N(c1cc(C)c(=O)n(C)c1)C2=O (stereo not given)
